Here are results for 15 molecules from patent US20090291971A1, “HETEROARYL ETHERS AND PROCESSES FOR THEIR PREPARATION” (Wyeth, priority 2007, published 2009).

A value given as a limit tells only on which side of the number the result lay.

One assay deals with PI3K alpha (Homo sapiens, UniProt P42336). In words: PI3 Kinase Assay (PI3K alpha). Format: biochemical. As for the experimental part: (§1) PI3-Kinase reactions were performed in […], pH 7, […], and 25 μM ATP, with diC8-PI(4,5)P2 (Echelon, Salt Lake City Utah) as substrate. Nunc 384 well black polypropylene fluorescent plates were used for PI3K assays. Reactions were quenched by the addition of EDTA to a final concentration of […]. Final reaction volumes were […]. For evaluation of PI 3-K inhibitors, 5 ng of enzyme and 2.5 μM of substrate was used per […] reaction volume, and inhibitor concentrations ranged from 100 μM to […]; the final level of DMSO in reactions never exceeded 2%. Reactions were allowed to proceed for one hour at 25° C. After 1 hour, GST-tagged GRP1 (general receptor for phosphoinositides) PH domain fusion protein was added to a final concentration of 100 nM, and BODIPY-TMRI(1,3,4,5)P4 (Echelon) was also added to a final concentration of 5 nM. Final sample volumes were 25 μl with a final DMSO concentration of 0.8%. Assay Plates were read on Perkin-Elmer Envision plate readers with appropriate filters for Tamra [BODIPY-TMRI(1,3,4,5)P4]. Data obtained were used to calculate enzymatic activity and enzyme inhibition by inhibitor compounds.

The target in a further assay is PI3K gamma (Homo sapiens, UniProt P48736). In words: PI3 Kinase Assay (PI3K gamma). Format: biochemical. The following applies: 1 h. The method, then: as §1
Chain of PI3K gamma (P48736 whole entry, species assumed): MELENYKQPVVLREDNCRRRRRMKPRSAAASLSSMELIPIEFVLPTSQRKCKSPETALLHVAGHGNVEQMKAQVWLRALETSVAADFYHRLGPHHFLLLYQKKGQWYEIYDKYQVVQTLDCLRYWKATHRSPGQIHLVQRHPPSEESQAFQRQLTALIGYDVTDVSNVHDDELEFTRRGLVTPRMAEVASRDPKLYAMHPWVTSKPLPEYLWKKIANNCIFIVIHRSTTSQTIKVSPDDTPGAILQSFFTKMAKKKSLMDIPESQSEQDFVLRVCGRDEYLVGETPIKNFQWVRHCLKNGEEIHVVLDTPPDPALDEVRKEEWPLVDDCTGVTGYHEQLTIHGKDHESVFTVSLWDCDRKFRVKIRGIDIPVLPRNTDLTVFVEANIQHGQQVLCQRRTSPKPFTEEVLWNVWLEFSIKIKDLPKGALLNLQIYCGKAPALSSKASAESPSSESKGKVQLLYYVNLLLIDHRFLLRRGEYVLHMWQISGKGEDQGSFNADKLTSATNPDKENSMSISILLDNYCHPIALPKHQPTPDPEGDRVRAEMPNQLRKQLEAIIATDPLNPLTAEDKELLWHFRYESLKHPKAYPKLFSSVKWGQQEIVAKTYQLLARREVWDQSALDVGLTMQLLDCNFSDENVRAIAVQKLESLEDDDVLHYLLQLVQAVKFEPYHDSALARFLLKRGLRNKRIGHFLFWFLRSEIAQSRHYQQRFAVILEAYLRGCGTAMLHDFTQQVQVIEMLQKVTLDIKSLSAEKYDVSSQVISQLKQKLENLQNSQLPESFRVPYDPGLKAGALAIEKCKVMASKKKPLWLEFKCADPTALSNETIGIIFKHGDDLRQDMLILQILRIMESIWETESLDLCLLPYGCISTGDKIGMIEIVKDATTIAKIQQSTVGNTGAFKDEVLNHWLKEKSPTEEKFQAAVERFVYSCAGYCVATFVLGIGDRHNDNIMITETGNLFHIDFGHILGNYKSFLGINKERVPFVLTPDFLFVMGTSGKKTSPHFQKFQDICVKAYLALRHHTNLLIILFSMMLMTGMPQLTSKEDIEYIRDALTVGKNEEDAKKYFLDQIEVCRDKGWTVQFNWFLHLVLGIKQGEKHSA

Chain of PI3K alpha (P42336 whole entry, species assumed, the tested form may be a part): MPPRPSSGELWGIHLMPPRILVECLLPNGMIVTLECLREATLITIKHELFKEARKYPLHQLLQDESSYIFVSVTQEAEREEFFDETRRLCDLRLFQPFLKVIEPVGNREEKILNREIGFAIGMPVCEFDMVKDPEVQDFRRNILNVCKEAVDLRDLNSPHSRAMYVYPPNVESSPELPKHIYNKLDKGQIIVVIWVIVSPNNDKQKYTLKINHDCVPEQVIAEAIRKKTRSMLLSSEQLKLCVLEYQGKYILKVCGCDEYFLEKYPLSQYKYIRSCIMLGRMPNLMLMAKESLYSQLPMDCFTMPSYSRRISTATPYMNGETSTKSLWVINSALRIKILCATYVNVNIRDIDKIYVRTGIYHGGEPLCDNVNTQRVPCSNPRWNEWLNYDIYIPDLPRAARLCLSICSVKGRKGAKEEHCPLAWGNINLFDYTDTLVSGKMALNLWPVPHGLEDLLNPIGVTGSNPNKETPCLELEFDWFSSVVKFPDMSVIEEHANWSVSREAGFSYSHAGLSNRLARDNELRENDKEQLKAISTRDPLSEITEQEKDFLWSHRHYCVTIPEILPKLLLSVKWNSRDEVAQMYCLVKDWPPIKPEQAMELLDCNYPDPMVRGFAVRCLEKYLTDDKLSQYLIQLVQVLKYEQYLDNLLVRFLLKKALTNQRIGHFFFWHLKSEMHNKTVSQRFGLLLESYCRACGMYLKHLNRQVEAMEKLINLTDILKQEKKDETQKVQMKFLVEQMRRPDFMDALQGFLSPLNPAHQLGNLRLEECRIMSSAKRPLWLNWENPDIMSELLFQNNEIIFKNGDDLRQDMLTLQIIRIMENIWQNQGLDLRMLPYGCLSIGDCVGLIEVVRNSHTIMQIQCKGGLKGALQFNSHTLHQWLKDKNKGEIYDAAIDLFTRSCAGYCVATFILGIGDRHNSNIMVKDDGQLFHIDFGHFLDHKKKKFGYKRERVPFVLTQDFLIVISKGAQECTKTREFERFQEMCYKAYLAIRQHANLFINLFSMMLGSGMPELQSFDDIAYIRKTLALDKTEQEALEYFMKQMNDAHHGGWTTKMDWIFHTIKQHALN
Chain of PI3K alpha (P27986 whole entry partner, species assumed, the tested form may be a part): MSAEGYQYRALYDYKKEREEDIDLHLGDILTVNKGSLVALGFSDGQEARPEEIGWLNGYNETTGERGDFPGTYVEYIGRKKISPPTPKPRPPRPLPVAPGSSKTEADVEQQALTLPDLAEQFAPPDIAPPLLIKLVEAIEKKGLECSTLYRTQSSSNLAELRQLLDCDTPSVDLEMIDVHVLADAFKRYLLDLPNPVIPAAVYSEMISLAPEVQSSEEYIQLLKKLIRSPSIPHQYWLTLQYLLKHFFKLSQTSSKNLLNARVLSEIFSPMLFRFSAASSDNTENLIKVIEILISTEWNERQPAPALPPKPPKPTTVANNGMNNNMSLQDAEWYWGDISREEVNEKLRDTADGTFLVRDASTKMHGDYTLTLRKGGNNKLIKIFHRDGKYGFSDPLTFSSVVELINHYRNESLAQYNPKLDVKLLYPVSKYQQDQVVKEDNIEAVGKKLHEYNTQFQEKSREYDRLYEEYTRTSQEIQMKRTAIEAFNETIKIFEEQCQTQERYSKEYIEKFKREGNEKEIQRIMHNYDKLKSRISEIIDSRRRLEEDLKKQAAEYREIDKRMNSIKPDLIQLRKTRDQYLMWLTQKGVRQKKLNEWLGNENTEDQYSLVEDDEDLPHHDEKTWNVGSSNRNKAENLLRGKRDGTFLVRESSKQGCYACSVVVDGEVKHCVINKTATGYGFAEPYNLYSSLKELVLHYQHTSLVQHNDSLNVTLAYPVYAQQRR

For `COc1ncccc1Oc1ncnc2ccccc12` [Example 28, 4-(2-Methoxypyridin-3-yloxy)quinazoline], the inhibition at 30 µM against PI3K alpha is 22%; against PI3K gamma it was under 10%.

With `COc1ncccc1Oc1ncc(Br)cn1` [Example 57, 5-Bromo-2-(2-methoxypyridin-3-yloxy)pyrimidine], the inhibition at 30 µM against PI3K alpha was 44%; on PI3K gamma, under 10%.

In the case of `O=[N+]([O-])c1cccc(Oc2ncnc3sccc23)c1` [Example 34, 4-(3-Nitrophenoxy)thieno[2,3-d]pyrimidine], the inhibition at 30 µM on PI3K alpha was 14%; at PI3K gamma, under 10%.

As to `CC(=O)c1ccc(Oc2ncnc3ccccc23)cc1` [Example 22, 1-(4-(Quinazolin-4-yloxy)phenyl)ethanone], the inhibition at 30 µM at PI3K alpha came to 34%; against PI3K gamma, 45%.

As for `N#Cc1cccc(Oc2ncnc3sccc23)c1` [Example 32, 3-(Thieno[2,3-d]pyrimidin-4-yloxy)benzonitrile], the values for the inhibition at 30 µM against PI3K alpha and at PI3K gamma were 32% and under 10%, respectively.

`COC(=O)c1sc2ncnc(Oc3ccccc3)c2c1C` [Example 36, Methyl 5-methyl-4-phenoxythieno[2,3-d]pyrimidine-6-carboxylate]: the figures for the inhibition at 30 µM on PI3K alpha and at PI3K gamma were 63% and 36%, respectively.

As for `COc1ccc(Oc2ncnc3ccccc23)cc1` [Example 20, 4-(4-Methoxyphenoxy)quinazoline], the inhibition at 30 µM stood at 65% against PI3K alpha and 4% at PI3K gamma.

As to `O=[N+]([O-])c1cccc(Oc2ncnc3ccccc23)c1` [Example 19, 4-(3-Nitrophenoxy)quinazoline], the inhibition at 30 µM at PI3K alpha is 24%; against PI3K gamma, under 10%.

As to `FC(F)(F)c1ccc(Oc2ncnc3ccccc23)cc1` [Example 21, 4-(4-(Trifluoromethyl)phenoxy)quinazoline], the results for the inhibition at 30 µM against PI3K alpha and against PI3K gamma were 36% and 6%, respectively.

With `N#Cc1ccc(Oc2ncnc3ccccc23)cc1` [Example 24, 4-(Quinazolin-4-yloxy)benzonitrile], the inhibition at 30 µM at PI3K alpha was 18%; on PI3K gamma, under 10%.

Consider `COc1ncccc1Oc1ccn(C)c(=O)n1` [Example 59, 4-(2-Methoxypyridin-3-yloxy)-1-methylpyrimidin-2(1H)-one], for which the values for the inhibition at 30 µM at PI3K alpha and on PI3K gamma were 46% and under 10%, respectively.

`COC(=O)c1sc2ncnc(Oc3cccc([N+](=O)[O-])c3)c2c1C` [Example 37, Methyl 5-methyl-4-(3-nitrophenoxy)thieno[2,3-d]pyrimidine-6-carboxylate]: the inhibition at 30 µM worked out at 24% on PI3K alpha and 16% on PI3K gamma.

With `CC(=O)c1ccccc1Oc1ncc(Br)cn1` [compound 44, 1-[2-(5-Bromo-pyrimidin-2-yloxy)-phenyl]-ethanone], the inhibition at 30 µM was determined as 72% against PI3K alpha and 44% on PI3K gamma.

In the case of `COC(=O)c1sc2ncnc(Oc3cccc(C#N)c3)c2c1C` [Example 38, Methyl 4-(3-cyanophenoxy)-5-methylthieno[2,3-d]pyrimidine-6-carboxylate], the inhibition at 30 µM on PI3K alpha came to 40%; against PI3K gamma it was 23%.

Regarding `Cc1noc(C)c1Oc1ncnc2sccc12` [Example 35, 3,5-Dimethyl-4-(thieno[2,3-d]pyrimidin-4-yloxy)isoxazole], the values for the inhibition at 30 µM at PI3K alpha and on PI3K gamma were 26% and 11%, respectively.

Broadly, the inhibition is the percentage by which the read-out fell short of the control. A high value points to strong suppression.
